For the data set, the system named is HeLa. In words: Cytotoxicity against human HeLa cells assessed as cell death at 1 uM after 24 hrs MTT assay relative to control. The class given is cell-based. Background: Formazan colour is commonly taken as a measure of viable cells.

Structures are written as SMILES.

With `O=C(/C=C/c1ccccc1)N[C@@H](c1ccccc1)[C@@H](OC(=O)c1ccccc1)C(=O)NC1CCCCC1`, the Activity was < 10%.

The values are drawn from ChEMBL document CHEMBL4024730 (Bioorg Med Chem Lett, 2017).
